Experimental data published in PubChem BioAssay AID1845199 (Molecular Pharmacology Branch, DTP, NCI, 2023).

System: 556581-035-R-J1 tumor spheroid viability, % test/control
Assay: Anticancer human tumor 556581-035-R-J1 patient-derived ovarian carcinoma cell line growth inhibition
Conditions: spheroids with HUVEC and MSC; for IC50: curve of first compound; for viability, T/C: stronger effect = lower value
Summary of the method: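 Complex spheroids of malignant cells with endothelial cells and mesenchymal stem cells; agents alone or combined, from near clinical Cmax (or 10 microM if unknown) down in half-log steps, 0.25% DMSO final.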
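Further: spheroids exposed to compounds for 7 days before viability read.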

## COc1ccc([C@@H](O)c2cc(-c3ncnc4cc(N5CCOCC5)ccc34)c(F)cc2Cl)nn1 + CC[C@@]1(O)C(=O)OCc2c1cc1n(c2=O)Cc2cc3c(CN(C)C)c(O)ccc3nc2-1
Second compound 0.003 µM
  IC50: 1960 nM
Second compound 0.00949 µM
  IC50: 1540 nM
Second compound 0.03 µM
  IC50: 785 nM
Second compound 0.0949 µM
  IC50: < 31.6 nM
Second compound 0.3 µM
  IC50: < 31.6 nM
Second compound 0.003 µM, first compound 0.0316 µM
  viability, T/C: 99.8%
Second compound 0.003 µM, first compound 0.1 µM
  viability, T/C: 99.8%
Second compound 0.003 µM, first compound 0.316 µM
  viability, T/C: 83.4%
Second compound 0.003 µM, first compound 1 µM
  viability, T/C: 63.7%
Second compound 0.003 µM, first compound 3.16 µM
  viability, T/C: 40.5%
Second compound 0.003 µM, first compound 10 µM
  viability, T/C: 31%
Second compound 0.00949 µM, first compound 0.0316 µM
  viability, T/C: 85%
Second compound 0.00949 µM, first compound 0.1 µM
  viability, T/C: 86.9%
Second compound 0.00949 µM, first compound 0.316 µM
  viability, T/C: 75.3%
Second compound 0.00949 µM, first compound 1 µM
  viability, T/C: 57.8%
Second compound 0.00949 µM, first compound 3.16 µM
  viability, T/C: 37.8%
Second compound 0.00949 µM, first compound 10 µM
  viability, T/C: 31.2%
Second compound 0.03 µM, first compound 0.0316 µM
  viability, T/C: 70.9%
Second compound 0.03 µM, first compound 0.1 µM
  viability, T/C: 64%
Second compound 0.03 µM, first compound 0.316 µM
  viability, T/C: 62.9%
Second compound 0.03 µM, first compound 1 µM
  viability, T/C: 46.6%
Second compound 0.03 µM, first compound 3.16 µM
  viability, T/C: 33.7%
Second compound 0.03 µM, first compound 10 µM
  viability, T/C: 29.5%
Second compound 0.0949 µM, first compound 0.0316 µM
  viability, T/C: 48.6%
Second compound 0.0949 µM, first compound 0.1 µM
  viability, T/C: 47.6%
Second compound 0.0949 µM, first compound 0.316 µM
  viability, T/C: 50.5%
Second compound 0.0949 µM, first compound 1 µM
  viability, T/C: 41.8%
Second compound 0.0949 µM, first compound 3.16 µM
  viability, T/C: 30.8%
Second compound 0.0949 µM, first compound 10 µM
  viability, T/C: 25.5%
Second compound 0.3 µM, first compound 0.0316 µM
  viability, T/C: 13.7%
Second compound 0.3 µM, first compound 0.1 µM
  viability, T/C: 11.9%
Second compound 0.3 µM, first compound 0.316 µM
  viability, T/C: 11.6%
Second compound 0.3 µM, first compound 1 µM
  viability, T/C: 13.2%
Second compound 0.3 µM, first compound 3.16 µM
  viability, T/C: 17.4%
Second compound 0.3 µM, first compound 10 µM
  viability, T/C: 18.5%
